Test results from patent publication US20210169903A1, “PHARMACEUTICAL COMPOSITIONS AND METHODS” (Tyme, Inc., priority 2019, published 2021).

Tested on: established subcutaneous CT26 murine colon carcinoma
Test: Anti-tumor activity of components of the transdermal formulation, intratumoral, tumor volume (Example 3)
Assay type: in vivo, female Balb/c mice
Parameters: TES Group Median / DT Group Median / TGD: unit not given here
Details: 50 μL intratumorally daily Day 11-17; for TGD: tumor growth delay versus Vehicle (0.0)
Protocol: A study is conducted to evaluate the anti-tumor activity of the components of the transdermal formulation intratumorally against established subcutaneous CT26 murine colon carcinoma in female Balb/c mice.
Vehicle control is saline solution. 3-surfactant mixture is a mixture of Nonaethylene glycol monododecyl ether, 1-Methyl-2-pyrrolidinone, and Linoleic Acid.
Tumor cells are implanted subcutaneously (Day 0). Once enrollment criteria are achieved, animals are distributed into treatment groups such that the mean tumor burden in each group is within 10% of the overall mean. Mice are dosed individually by body weight (50 μL fixed/injection intratumorally) on the day of treatment as described above. Animals are dose daily for 7 days beginning on Day 11 and ending on Day 17. Animals are held for tumor growth delay endpoint/tumor growth inhibition endpoint and complete regression/partial regression/tumor free survivor determination.

[1] = 2nd time-point column (day not given)
[2] = 4th time-point column (day not given)
[3] = 5th time-point column (day not given)
[4] = 6th time-point column (day not given)
[5] = 7th time-point column (day not given)

CN1CCCC1=O [1-Methyl-2-pyrrolidinone anhydrous, 1-Methyl-2-pyrrolidinone]
Mean Tumor Volume [1]: 278 mm^3
Median Tumor Volume [1]: 295 mm^3
Mean Tumor Volume (3rd time-point (day not given)): 428 mm^3
Median Tumor Volume (3rd time-point (day not given)): 426 mm^3
Mean Tumor Volume [2]: 688 mm^3
Median Tumor Volume [2]: 624 mm^3
Mean Tumor Volume [3]: 1008 mm^3
Median Tumor Volume [3]: 918 mm^3
Mean Tumor Volume [4]: 1216 mm^3
Median Tumor Volume [4]: 1183 mm^3
Mean Tumor Volume [5]: 1910 mm^3
Median Tumor Volume [5]: 1812 mm^3
DT Group Median: 4.0
TES Group Median: 18.8
Mean Tumor Volume (day not given): 134 mm^3
Median Tumor Volume (day not given): 141 mm^3
TGD: 0.8

CCCCC/C=C\C/C=C\CCCCCCCC(=O)O [Linoleic Acid]
Mean Tumor Volume [1]: 283 mm^3
Median Tumor Volume [1]: 270 mm^3
Mean Tumor Volume (3rd time-point (day not given)): 481 mm^3
Median Tumor Volume (3rd time-point (day not given)): 411 mm^3
Mean Tumor Volume [2]: 777 mm^3
Median Tumor Volume [2]: 700 mm^3
Mean Tumor Volume [3]: 1291 mm^3
Median Tumor Volume [3]: 1030 mm^3
Mean Tumor Volume [4]: 1118 mm^3
Median Tumor Volume [4]: 1152 mm^3
Mean Tumor Volume [5]: 2035 mm^3
Median Tumor Volume [5]: 2250 mm^3
DT Group Median: 3.5
TES Group Median: 18.7
Mean Tumor Volume (day not given): 132 mm^3
Median Tumor Volume (day not given): 138 mm^3
TGD: 0.6

CCCCCCCCCCCCOCCOCCOCCOCCOCCOCCOCCOCCOCCO [Nonaethylene glycol monododecyl ether]
Mean Tumor Volume [1]: 236 mm^3
Median Tumor Volume [1]: 246 mm^3
Mean Tumor Volume (3rd time-point (day not given)): 416 mm^3
Median Tumor Volume (3rd time-point (day not given)): 368 mm^3
Mean Tumor Volume [2]: 761 mm^3
Median Tumor Volume [2]: 819 mm^3
Mean Tumor Volume [3]: 996 mm^3
Median Tumor Volume [3]: 988 mm^3
Mean Tumor Volume [4]: 1364 mm^3
Median Tumor Volume [4]: 1311 mm^3
Mean Tumor Volume [5]: 2017 mm^3
Median Tumor Volume [5]: 2009 mm^3
DT Group Median: 3.7
TES Group Median: 17.7
Mean Tumor Volume (day not given): 126 mm^3
Median Tumor Volume (day not given): 125 mm^3
TGD: −0.4
